# Laboratory results from patent publication US6528528B2 (Warner-Lambert Company, priority 1997, dated 2003).
# Biological target: T1, rabbit reticulocyte 15-LO (Oryctolagus cuniculus, UniProt P12530)
# T1 construct: Fifteen-lipoxygenase was obtained from phenylhydrazine-treated rabbits and purified per the method of Rapoport; from tissue; host or cells: reticulocytes of phenylhydrazine-treated rabbits
# T1 sequence (P12530 1-663): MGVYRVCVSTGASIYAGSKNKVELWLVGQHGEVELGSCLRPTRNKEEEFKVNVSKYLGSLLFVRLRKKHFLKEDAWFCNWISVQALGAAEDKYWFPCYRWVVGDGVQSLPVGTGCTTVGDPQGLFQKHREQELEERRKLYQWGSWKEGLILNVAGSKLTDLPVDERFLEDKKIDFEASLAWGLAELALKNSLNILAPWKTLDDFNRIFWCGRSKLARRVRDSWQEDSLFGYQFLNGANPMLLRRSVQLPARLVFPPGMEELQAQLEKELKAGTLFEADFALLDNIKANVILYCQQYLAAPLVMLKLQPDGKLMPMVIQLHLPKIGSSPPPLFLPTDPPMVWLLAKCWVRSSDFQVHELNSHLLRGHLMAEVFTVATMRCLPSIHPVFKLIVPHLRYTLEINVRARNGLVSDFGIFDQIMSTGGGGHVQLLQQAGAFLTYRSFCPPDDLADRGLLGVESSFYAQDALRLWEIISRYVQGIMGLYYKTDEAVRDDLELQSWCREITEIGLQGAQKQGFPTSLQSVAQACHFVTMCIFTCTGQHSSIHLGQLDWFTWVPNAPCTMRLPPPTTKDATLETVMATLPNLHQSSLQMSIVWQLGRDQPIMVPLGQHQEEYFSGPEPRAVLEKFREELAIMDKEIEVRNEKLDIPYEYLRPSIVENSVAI
# Assay: Rabbit Reticulocyte 15-LO Assay (h15LO)
# Type: biochemical
# Settings: Table 2; for IC50: 2U rabbit reticulocyte 15-LO, 174 μM linoleic acid, 15 minutes at 4° C.; for h15LO, value given as bare %: concentration not given
# Description: Rabbit Reticulocyte 15-LO Assay (h15LO)
# The present 15-LO assay takes advantage of the ability of 15-LO to oxidize the fatty acid linoleic acid to the hydroperoxy fatty acid 13-(S)HPODE, resulting in the formation of a conjugated diene. The 15-LO inhibitors are incubated with 15-LO enzyme in the presence of linoleic acid substrate. The initial reaction is compared to an uninhibited (maximal) reaction to yield % inhibition. […] This prevents artificial nonenzyme lipid peroxidation and product breakdown in the sample. 13-HPODE is quantitated by comparing peak areas of individual samples with those from a standard curve generated using authentic 13-HODE. This assay is performed using 2U of rabbit reticulocyte 15-LO in the presence of 174 μM linoleic acid. The reaction is incubated for 15 minutes at 4° C. The total reaction volume is 100 μL in PBS containing 0.2% Na cholate.
# Fifteen-lipoxygenase was obtained from phenylhydrazine-treated rabbits and purified per the method of Rapoport (Rapoport S. M., Schewe T., Wiesner R., et al. The lipoxygenase of reticulocytes. Purification, characterization, and biological dynamics of the lipoxygenase; its identity with the respiratory inhibitors of the reticulocyte. European Journal of Biochemistry, 1979;96:545-561). The following chemicals were purchased and used as received: linoleic acid (NUJCheck Prep), 13-HPODE (Biomol Research Labs), sodium cholate (Sigma), trimethyl phosphite (Fluka Chemicals).
SMILES,IC50,"h15LO, value given as bare %"
"COc1ccc(C(=O)Nc2ccc(F)cc2)cc1NC(=S)Nc1cccc(C(=O)O)c1 [Example 167, 3-{3-[5-(4-Fluoro-phenylcarbamoyl)-2-methoxy-phenyl]-thioureido}-benzoic Acid]",–,96.22%
"O=C(Nc1ccccc1)c1ccc(OC(F)(F)F)c(Nc2cccc(C(F)(F)F)c2)c1 [Example 158, 4-Trifluoromethoxy-3-(3-trifluoromethyl-phenylamino)-N-phenyl-benzamide]",–,48.28%
"COc1ccc(NC(=O)c2ccc(F)c(F)c2)cc1NS(=O)(=O)c1cccc(C#N)c1 [Example 205, 3,4-Difluoro-N-[3-(3-cyano-benzenesulfonylamino)-4-methoxy-phenyl]-benzamide]",–,86.96%
"COc1ccc(C(=O)Nc2ccccc2)cc1NCc1cccc2ccccc12 [Example 217, 4-Methoxy-3-[(naphthalen-1-ylmethyl)-amino]-N-phenyl-benzamide]",129 nM,–
"O=C(Nc1ccc(F)cc1)c1ccc(OC(F)(F)F)c(Nc2cccc(C(F)(F)F)c2)c1 [Example 159, 4-Trifluoromethoxy-3-(3-trifluoromethyl-phenylamino)-N-(4-fluoro-phenyl)-benzamide]",–,44.58%
"COc1ccc(C(=O)Nc2ccccc2)cc1NCc1ccc(F)cc1 [Example 224, 4-Methoxy-3-(4-fluoro-benzylamino)-N-phenyl-benzamide]",982 nM,–
"COc1ccc(C(=O)Nc2ccc(F)c(F)c2)cc1NS(=O)(=O)c1cc(Cl)cc(Cl)c1 [Example 116, 3-(3,5-Dichloro-benzenesulfonylamino)-4-methoxy-N-(3,4-difluorophenyl)-benzamide]",20 nM,–
"COc1ccc(C(=O)OCc2ccccc2)cc1NC(=S)Nc1cc(Cl)cc(Cl)c1 [Example 176, 3-[3-(3,5-Dichloro-phenyl)-thioureido]-4-methoxy-benzoic Acid Benzyl Ester]",800 nM,–
"COc1ccc(C(=O)Nc2ccc(F)c(F)c2)cc1NCc1ccc(C(=O)O)cc1 [Example 234, 4-{[5-(3,4-Difluoro-phenylcarbamoyl)-2-methoxy-phenylalino]-methyl}-benzoic Acid]",–,71.56%
"COc1ccc(C(=O)Nc2ccccc2)cc1NCc1cccc(C#N)c1 [Example 229, 3-(3-Cyano-benzylamino)-4-methoxy-N-phenyl-benzamide]",–,92.70%
"COc1ccc(C(=O)Nc2ccccc2)cc1NC(=S)Nc1ccc(Cl)c(C(F)(F)F)c1 [Example 73, 3-[3-(4-Chloro-3-trifluoromethylphenyl)-thioureido]-4-methoxy-N-phenyl-benzamide]",16 nM,–
"COc1ccc(NC(=O)Nc2ccc(Cl)c(Cl)c2)cc1N [Example 152, 1-(3-Amino-4-methoxy-phenyl)-3-(3,4-dichloro-phenyl)-urea]",–,57.49%
"COc1ccc(NC(=O)c2ccc(Cl)c(Cl)c2)cc1Nc1cccc(C(F)(F)F)c1 [Example 160, 3,4-Dichloro-N-[4-methoxy-3-(3-trifluoromethyl-phenylamino)-phenyl]-benzamide]",119 nM,–
"COc1ccc(NC(=O)c2ccc(F)c(F)c2)cc1NS(=O)(=O)CCl [Example 201, 3,4-Difluoro-N-[4-methoxy-3-(chloromethyl-sulfonylamino)-phenyl]. benzamide]",–,93.97%
"CCOC(=O)c1cccc(NC(=O)c2ccc(OC)c(Nc3cccc(C(F)(F)F)c3)c2)c1 [Example 157, 3-[4-Methoxy-3-(3-trifluoromethyl-phenylamino)-benzoylamino]-benzoic Acid Ethyl Ester]",–,78.83%
"CCN(CC)c1ccc(CNc2cc(C(=O)Nc3ccccc3)ccc2OC)cc1 [Example 211, 3-(4-Diethylamino-benzylamino)-4-methoxy-N-phenyl-benzamide]",69 nM,–
"COc1ccc(NC(=O)Nc2ccc(Cl)c(Cl)c2)cc1NC(=S)Nc1cc(Cl)cc(Cl)c1 [Example 171, 1-(3,4-Dichloro-phenyl)-3-{3-[3-(3,5-dichloro-phenyl)-thioureido]-4-methoxy-phenyl}-urea]",275 nM,–
"O=C(Nc1ccc(F)c(NS(=O)(=O)c2cccs2)c1)c1ccc(F)c(F)c1 [Example 206, 3,4-Difluoro-N-[4-fluoro-3-(thiophene-2-sulfonylamino)-phenyl]-benzamide]",–,45.56%
"CCCCCCCCCCS(=O)(=O)Nc1cc(C(=O)Nc2ccccc2)ccc1OC [Example 179, 3-(Decane-1-sulfonylamino)-4-methoxy-N-phenyl-benzamide]",7 nM,–
"COc1ccc(NC(=O)Nc2ccc(Cl)c(Cl)c2)cc1NC(=S)Nc1ccc(Cl)c([N+](=O)[O-])c1 [Example 175, 1-{3-[3-(4-Chloro-3-nitro-phenyl)-thioureido]-4-methoxy-phenyl}-3-(3,4-dichloro-phenyl)-urea]",–,52%
"COc1ccc(NC(=O)Nc2ccc(Cl)c(Cl)c2)cc1NS(=O)(=O)c1cccs1 [Example 207, Thiophene-2-sulfonic acid {5-[3-(3,4-dichloro-phenyl)-ureido]-2-methoxy-phenyl}-amide]",–,41.59%
"COc1ccc(NC(=O)Nc2ccc(Cl)c(Cl)c2)cc1NC(=S)Nc1cc(C(F)(F)F)cc(C(F)(F)F)c1 [Example 174, 1-{3-[3-(3,5-Bis-trifluoromethyl-phenyl)-thioureido]-4-methoxy-phenyl}-3-(3,4-dichloro-phenyl)-urea]",–,53%
"COc1ccc(NC(=O)c2ccc(F)c(F)c2)cc1NS(=O)(=O)c1ccc([N+](=O)[O-])cc1 [Example 202, 3,4-Difluoro-N-[4-methoxy-3-(4-nitro-benzenesulfonylamino)-phenyl]-benzamide]",–,93.85%

# Other lines, results leading:
IC50,"h15LO, value given as bare %",SMILES
35 nM,–,"COc1ccc(C(=O)Nc2ccc(F)c(F)c2)cc1NCc1cccs1 [Example 258, 4-Methoxy-3-[(thiophen-2-ylmethyl)-amino]-N-(3,4-difluoro-phenyl)-benzamide]"
186 nM,–,"COc1ccc(C(=O)Nc2ccc(F)cc2)cc1NCc1cccs1 [Example 260, 4-Methoxy-3-[(thiophen-2-ylmethyl)-amino]-N-(4-fluoro-phenyl)-benzamide]"
–,98.02%,"COc1ccc(NC(=O)c2ccc(F)c(F)c2)cc1NCc1cccc(O)c1 [Example 245, 3,4-Difluoro-N-[3-(3-hydroxy-benzylamino)-4-methoxy-phenyl]-benzamide]"
197 nM,–,"COc1ccc(C(=O)Nc2ccccc2)cc1NCc1ccc2c(c1)OCO2 [Example 266, 3-[(Benzo[1,3]dioxol-5-ylmethyl)-amino]-4-methoxy-N-phenyl-benzamide]"
–,62.01%,"COc1ccc(C(=O)Nc2ccccc2)cc1N(S(=O)(=O)c1cc(Cl)cc(Cl)c1)S(=O)(=O)c1cc(Cl)cc(Cl)c1 [Example 251, 3-[Bis[(3,5-dichlorophenyl)sulfonyl]amino]-4-methoxy-N-phenyl-benzamide]"
–,50%,"COc1ccc(C(=O)Nc2ccccc2)cc1NCc1ccc(C)c(C)c1 [Example 242, 3-(3,4-Dimethyl-benzylamino)-4-methoxy-N-phenyl-benzamide]"
37 nM,–,"COc1ccc(NC(=O)c2ccc(Cl)c(Cl)c2)cc1NCc1cccs1 [Example 264, 3,4-Dichloro-N-{4-methoxy-3-[(thiophen-2-ylmethyl)-amino]-phenyl}-benzamide]"
–,92.57%,"COc1ccc(C(=O)Nc2ccc(F)c(F)c2)cc1NCc1cccc(C(=O)O)c1 [Example 230, 3-{[5-(3,4-Difluoro-phenylcarbamoyl)-2-methoxy-phenylamino]-methyl}-benzoic Acid]"
–,64%,"COc1ccc(C(=O)Nc2ccccc2)cc1NCc1ccc(C)cc1 [Example 237, 4-Methoxy-3-(4-methyl-benzylamino)-N-phenyl-benzamide]"
302 nM,–,COc1ccc(C(=O)Nc2ccccc2)cc1NCc1ccc2c(c1)OCCO2 [Example 271]
137 nM,–,"COc1ccc(C(=O)Nc2ccccc2)cc1NCc1cccs1 [Example 259, 4-Methoxy-3-[(thiophen-2-ylmethyl)-amino]-N-phenyl-benzamide]"
